Data: patent publication US9598463B2, “Mucin hypersecretion inhibitors and methods of use” (BIOMARCK PHARMACEUTICALS, LTD., priority 2005, dated 2017)
Read-outs that look alike come from different tables or passages of the source. Marks after values point to notes of the source that are not given here. Where a SMILES comes first, the peptide text is derived from it. The star is where a group is joined. Myristoyl = CCCCCCCCCCCCCC(=O)*

Tests used:
[1] = Qualitative solubility of test peptides in 0.5 N saline; assay type: physicochemical; details: pH 6.5, 20° C. (table title)
Description: Various test peptides (1 to 5 mg each) were weighed out accurately in individual 2 mL screw cap glass vials and aliquots of 25 μL of 0.5 N saline, pH 6.5, were added at 25° C. and ambient pressure. The solubility was evaluated visually. If the test peptide dissolves completely with the first aliquot of saline, its solubility was calculated and designated as more than the calculated amount. […] Similarly, if 1.7 mg of a test peptide fails to dissolve in 1.7 mL of 0.5 N saline, its solubility is stated as <1.0 mg/mL.

[2] = system: methacholine-induced mucin hypersecretion; assay: Methacholine-induced mucin hypersecretion in ovalbumin-sensitized mouse model of asthma, BAL mucin ELISA (Balb/C mice); assay type: in vivo; details: for Mucin Secretion % control: peptides at 100 μM; for Mucin Secretion % of control: Table IV
Excerpt: Experiments were designed to test whether or not the MANS peptide and other test peptides related thereto inhibit hypersecretion of mucin in murine airway in vivo. The ovalbumin-sensitized mouse model of allergic inflammation and asthma used in these studies was as described by Singer et al. (2004), supra. As a negative control, a control peptide containing an N-terminal myristoyl group and the same amino acids as MANS peptide but arranged in random order (i.e., the random N-terminal sequence, RNS, myristoyl-peptide 232) was tested alongside the proposed active peptides. BP2 mice, aged 6-8 wks, were immunized subcutaneously twice at weekly intervals with 1 μg of ovalbumin. After 14 days of sensitization, the animals were exposed to aerosolized ovalbumin, which causes a pronounced goblet cell hyperplasia after 72 hours. At the 72 hr time point, the secretagogue, methacholine ([…]) was delivered using a Buxco system nebulizer providing a fine aerosol for 90 seconds. Fifteen min prior to the secretagogue challenge, 50 μL of the test peptide, at 3 different concentrations (10 μM, 100 μM, or 140 μM), was administered by intratracheal route. The RNS peptide was tested at the highest dose level only (50 μL of 140 μM solution). […] Each experiment was carried out in 6 mice per point, and each set of experiments was repeated 3 times. To test strain-to-strain variations, the above experiment was repeated in Balb/C mice under similar protocol. Both stimulated and unstimulated mucin secretion, in mice treated with […] sodium acetate (data not shown), were identical to saline control. Following the methacholine challenge, the animals were sacrificed and bronchoalveolar lavage (BAL) performed on 6 animals per group for analysis of secreted mucin.
Mice were sacrificed by cervical dislocation, followed by rapid exposure of the trachea and insertion of a cannula through a small incision. Bronchoalveolar lavage (BAL) fluid was collected with 0.5 ml followed by 3×1 ml PBS containing PMSF (5 mM), EDTA (5 mM), and DTT (5 mM). BAL fluid was separated into cell-free and cell fractions via brief centrifugation prior to any analyses being performed. The cell-free supernatants were analyzed for the presence of mucin via an ELISA method using anti-mucin antibodies shown to react with mouse mucin. Specifically, a mouse anti-MUC5AC antibody that recognizes the carbohydrate portion of secreted mucin was used in these assays. Data generated from each BAL sample were normalized to total protein as determined by Bradford assay. Mucin content was expressed as the value obtained with the anti-mucin antibody minus that obtained with the non-immune control antibody. All ELISA data were statistically examined using a one-way ANOVA.

[3] = Stability of test peptides in human BALF (LC/MS/MS, first order half-life); assay type: in vitro ADME; details: human BALF from COPD patients
Description: Various test peptides in human plasma, human BALF, and CF patient mucus were analyzed to determine the susceptability of the test peptide to proteolysis in the biological fluids. […] The samples were analyzed either on the same day as received or stored at −20° C. and analyzed within the following two days.
Samples of BALF collected from COPD patients were obtained and frozen. The BALF samples were thawed, mixed together and centrifuged at 10,000×g for 10 min at 4-8° C. The supernatant (0.9 mL) was spiked with 0.1 mL of 0.5 mg/mL solution of the peptide in 75 mM sodium acetate buffer at pH 7.0 and processed and analyzed as described above.
All samples were analyzed using LC/MS/MS (MDS/SCIEX, API 4000 Model). Chromatography was performed using a Phenomenex Luna C18 column, while mass spectrometry was performed using positive ion electrospray ionization.
Calibration standards were analyzed by LCMS at concentrations of 0.100 μg/mL, 1.00 μg/mL, 10.0 μg/mL, and 100 μg/mL for each peptide, with the exception of the calibration standards for peptides myr-PEPTIDE 106, PEPTIDE 106, PEPTIDE 106-NH2, PEPTIDE 106, and cyclic peptide, cyc-PEPTIDE 106, in human mucus, which were analyzed at concentrations of 0.100 μg/mL, 1.00 μg/mL, 10.0 μg/mL, and 75 μg/mL. Standards were prepared in 1% human BALF, plasma, or mucus in 50/50 water/acetonitrile mixture containing 0.2% formic acid. The instrument response values for each set of standards were fit using a 1/(concentration)^2 linear least-squares line. Sample concentrations were calculated using the slope and intercept of this line. Concentrations outside of the calibration range were determined by extrapolating the calibration curve.
Duplicate calibration standards were analyzed at a concentration of 50 μg/mL for each peptide. The instrument response values for each set of standards were fit through an intercept of 0 using an unweighted, linear least-squares line. Sample concentrations were calculated using the slope and intercept of this line.
For the analysis of peptide concentration in BALF samples, one 50 μg/mL calibration standard prepared in a mixture of BALF, water, acetonitrile, and formic acid was analyzed with each sample set.
Watson fits the log transformed data with a least-squares line to determine parameters such as Cmax (maximum concentration), intercept, rate constant, slope, and T1/2 (half-life). The resulting kinetic parameters were based on the linear fit, not the actual concentration values.
Time-zero calibration standards in solution were not included as part of the kinetic profiles.

[4] = Table II, 50 μL intratracheal 15 min before methacholine
[5] = cerebrospinal or other body fluid, 1st experiment, read-out: BALF t1/2 (1st exp.) (converted)
[6] = cerebrospinal or other body fluid, 2nd experiment, read-out: BALF t1/2 (2nd exp.) (converted)

Molecule: CCCCCCCCCCCCCC(=O)N[C@@H](C)C(=O)N[C@@H](CCCCN)C(=O)NCC(=O)N[C@@H](CCC(=O)O)C(=O)N[C@@H](C)C(=O)N[C@@H](C)C(=O)N[C@@H](C)C(=O)N[C@@H](CCC(=O)O)C(=O)N[C@@H](CCCNC(=N)N)C(=O)N1CCC[C@H]1C(=O)NCC(=O)N[C@@H](CCC(=O)O)C(=O)N[C@@H](C)C(=O)N[C@@H](C)C(=O)N[C@H](C(=O)N[C@@H](C)C(=O)O)C(C)C [myr-peptide 45] (Myristoyl-AKGEAAAERPGEAAVA-OH)
- solubility [1]: > 80000 µg/mL
- Mucin Secretion % control ([2]; Table III): 35** % control

Molecule: CCCCCCCCCCCCCC(=O)NCC(=O)N[C@@H](C)C(=O)N[C@@H](CCC(N)=O)C(=O)N[C@@H](Cc1ccccc1)C(=O)N[C@@H](CO)C(=O)N[C@@H](CCCCN)C(=O)N[C@H](C(=O)N[C@@H](C)C(=O)N[C@@H](C)C(=O)N[C@@H](CCCCN)C(=O)NCC(=O)N[C@@H](CCC(=O)O)C(=O)O)[C@@H](C)O [myr-peptide 79] (Myristoyl-GAQFSKTAAKGE-OH)
- solubility [1]: > 2000 µg/mL
- Mucin Secretion % control [2, 4]: 50 % control
- Mucin Secretion % control ([2]; Table III): 48 % control

Molecule: CCCCCCCCCCCCCC(=O)N[C@@H](C)C(=O)N[C@@H](C)C(=O)N[C@@H](C)C(=O)N[C@@H](CCC(=O)O)C(=O)N[C@@H](CCCNC(=N)N)C(=O)N1CCC[C@H]1C(=O)NCC(=O)N[C@@H](CCC(=O)O)C(=O)N[C@@H](C)C(=O)N[C@@H](C)C(=O)N[C@H](C(=O)N[C@@H](C)C(=O)O)C(C)C [myr-peptide 91] (Myristoyl-AAAERPGEAAVA-OH)
- solubility [1]: < 20000 µg/mL
- Mucin Secretion % control ([2]; Table III): 68 % control

Molecule: CCCCCCCCCCCCCC(=O)NCC(=O)N[C@@H](C)C(=O)N[C@@H](CCC(N)=O)C(=O)N[C@@H](Cc1ccccc1)C(=O)N[C@@H](CO)C(=O)N[C@@H](CCCCN)C(=O)N[C@H](C(=O)N[C@@H](C)C(=O)N[C@@H](C)C(=O)N[C@@H](CCCCN)C(N)=O)[C@@H](C)O [myr-peptide 106-NH2] (Myristoyl-GAQFSKTAAK-NH2)
- solubility [1]: < 10000 µg/mL
- Mucin Secretion % control [2, 4]: 29.3 % control
- Mucin Secretion % of control ([2]; peptide 10 μM): 67*+ % of control
- Mucin Secretion % of control ([2]; peptide 100 μM): 17** % of control
- half-life [3, 5]: 10.5 h
- half-life [3, 6]: 12.8 h

Molecule: CCCCCCCCCCCCCC(=O)NCC(=O)N[C@@H](C)C(=O)N[C@@H](CCC(N)=O)C(=O)N[C@@H](Cc1ccccc1)C(=O)N[C@@H](CO)C(=O)N[C@@H](CCCCN)C(=O)N[C@H](C(=O)N[C@@H](C)C(=O)O)[C@@H](C)O [myr-peptide 137] (Myristoyl-GAQFSKTA-OH)
- solubility [1]: < 1000 µg/mL
- Mucin Secretion % control [2, 4]: 55 % control

Molecule: CCCCCCCCCCCCCC(=O)N[C@@H](CCCNC(=N)N)C(=O)N1CCC[C@H]1C(=O)NCC(=O)N[C@@H](CCC(=O)O)C(=O)N[C@@H](C)C(=O)N[C@@H](C)C(=O)N[C@H](C(=O)N[C@@H](C)C(=O)O)C(C)C [myr-peptide 153] (Myristoyl-RPGEAAVA-OH)
- solubility [1]: < 10000 µg/mL
- Mucin Secretion % control ([2]; Table III): 50 % control

Molecule: CCCCCCCCCCCCCC(=O)NCC(=O)N[C@@H](CCCCN)C(=O)N[C@@H](CCC(N)=O)C(=O)N[C@@H](Cc1ccccc1)C(=O)N[C@@H](CO)C(=O)N[C@@H](CCCCN)C(=O)N[C@H](C(=O)N[C@@H](C)C(=O)N[C@@H](C)C(=O)N[C@@H](CCCCN)C(=O)NCC(=O)N[C@@H](CCC(=O)O)C(=O)O)[C@@H](C)O [myr-peptide 233] (Myristoyl-GKQFSKTAAKGE-OH)
- solubility [1]: > 3000 µg/mL
- Mucin Secretion % control [2, 4]: 21 % control

Molecule: CCCCCCCCCCCCCC(=O)NCC(=O)N[C@@H](C)C(=O)N[C@@H](CCC(N)=O)C(=O)N[C@@H](Cc1ccccc1)C(=O)N[C@@H](CO)C(=O)N[C@@H](CCCCN)C(=O)N[C@H](C(=O)N[C@@H](CCCCN)C(=O)N[C@@H](C)C(=O)N[C@@H](CCCCN)C(=O)NCC(=O)N[C@@H](CCC(=O)O)C(=O)O)[C@@H](C)O [myr-peptide 234] (Myristoyl-GAQFSKTKAKGE-OH)
- solubility [1]: > 3000 µg/mL
- Mucin Secretion % control [2, 4]: 8 % control
- half-life ([3]; 1st experiment, read-out: BALF t1/2 (1st exp.) (converted)): 1.08 h

Molecule: CCCCCCCCCCCCCC(=O)NCC(=O)N[C@@H](CCCCN)C(=O)N[C@@H](CCC(N)=O)C(=O)N[C@@H](Cc1ccccc1)C(=O)N[C@@H](CO)C(=O)N[C@@H](CCCCN)C(=O)N[C@H](C(=O)N[C@@H](CCCCN)C(=O)N[C@@H](C)C(=O)N[C@@H](CCCCN)C(=O)NCC(=O)N[C@@H](CCC(=O)O)C(=O)O)[C@@H](C)O [myr-peptide 235] (Myristoyl-GKQFSKTKAKGE-OH)
- solubility [1]: > 60000 µg/mL
- Mucin Secretion % control [2, 4]: 13 % control

Molecule: CCCCCCCCCCCCCC(=O)NCC(=O)N[C@@H](C)C(=O)N[C@@H](CCC(N)=O)C(=O)N[C@@H](C)C(=O)N[C@@H](CO)C(=O)N[C@@H](CCCCN)C(=O)N[C@H](C(=O)N[C@@H](C)C(=O)N[C@@H](C)C(=O)N[C@@H](CCCCN)C(N)=O)[C@@H](C)O [myr-peptide 236-NH2] (Myristoyl-GAQASKTAAK-NH2)
- solubility [1]: < 10000 µg/mL
- Mucin Secretion % control [2, 4]: 51 % control
- half-life [3, 5]: 4.16 h
- half-life [3, 6]: 4.08 h

Molecule: H-GAQFSKTAAKGE-OH [peptide 79, GAQFSKTAAKGE]
- solubility [1]: > 60000 µg/mL
- Mucin Secretion % control [2, 4]: 10 % control
